Assay results as given in article PMC10218941, “Design, Synthesis, Antiproliferative Actions, and DFT Studies of New Bis–Pyrazoline Derivatives as Dual EGFR/BRAF^V600E Inhibitors” (International Journal of Molecular Sciences, 2023).

How the values were obtained:
[1] = tested on: Bax; experiment: Bax level assay; type: cell-based, human; settings: MCF-7 cells; for Bax Fold Change: versus untreated control
Experimental: (§1) Additionally, the effects of compounds 12 and 17 on the levels of caspase-8, Bax, and Bacl-2 in the MCF-7 cancer cell line and staurosporine as a control were examined. […]
Cells were obtained from American Type Culture Collection, cells were grown in RPMI 1640 containing 10% fetal bovine serum at 37°C, stimulated with the compounds to be tested for caspase8, and lysed with Cell Extraction Buffer. This lysate was diluted in Standard Diluent Buffer over the range of the assay and measured for human active caspase-8 content. […]
4.2.5. Bax activation assay
Bring all reagents, except the human Bax-α Standard, to room temperature for at least 30 minutes prior to opening. The human Bax-α Standard solution should not be left at room temperature for more than 10 minutes. All standards, controls and samples should be run in duplicate. Refer to the Assay Layout Sheet to determine the number of wells to be used and put any remaining wells with the desiccant back into the pouch and seal the ziploc. Store unused wells at 4 °C. Pipet 100 μL of Assay Buffer into the S0 (0 pg/mL standard) wells. Pipet 100 μL of Standards #1 through #6 into the appropriate wells. Pipet 100 μL of the Samples into the appropriate wells. Tap the plate gently to mix the contents. Seal the plate and incubate at room temperature on a plate shaker for 1 hour at ~500 rpm. Empty the contents of the wells and wash by adding 400 μL of wash solution to every well. Repeat the wash 4 more times for a total of 5 washes. After the final wash, empty or aspirate the wells and firmly tap the plate on a lint free paper towel to remove any remaining wash buffer. Pipet 100 μL of yellow Antibody into each well, except the Blank. Seal the plate and incubate at room temperature on a plate shaker for 1 hour at ~500 rpm. Empty the contents of the wells and wash by adding 400 μL of wash solution to every well. Repeat the wash 4 more times for a total of 5 washes. After the final wash, empty or aspirate the wells and firmly tap the plate on a lint free paper towel to remove any remaining wash buffer. Add 100 μL of blue Conjugate to each well, except the Blank. Seal the plate and incubate at room temperature on a plate shaker for 30 minutes at ~500 rpm. Empty the contents of the wells and wash by adding 400 μL of wash solution to every well. Repeat the wash 4 more times for a total of 5 washes. After the final wash, empty or aspirate the wells and firmly tap the plate on a lint free paper towel to remove any remaining wash buffer. Pipet 100 μL of Substrate Solution into each well. Incubate for 30 minutes at room temperature on a plate shaker at ~500 rpm. Pipet 100 μL Stop Solution to each well. Blank the plate reader against the Blank wells, read the optical density at 450 nm. Calculate the average net Optical Density (OD) bound for each standard and sample by subtracting the average Blank OD from the average OD for each standard and sample.
Using linear graph paper, plot the Average Net OD for each standard versus Bax concentration in each standard. Approximate a straight line through the points. The concentration of Bax in the unknowns can be determined by interpolation. […]
Cover with a plate cover and incubate at room temperature, on a microplate shaker at 100 rpm if available, for 2 hours. Remove plate cover and empty the wells.
(§2) Wash microwell strips 3 times as described in step 2. Add 100 μL of diluted Streptavidin-HRP to all wells, including the blank wells. Cover with a plate cover and incubate at room temperature, on a microplate shaker at 100 rpm if available, for 1 hour. Remove plate cover and empty the wells.
(§3) Wash microwell strips 3 times as described in step 2. Proceed to the next step. Pipette 100 μl of mixed TMB Substrate Solution to all wells, including the blanks. Incubate the microwell strips at room temperature (18° to 25°C) for about 15 minutes, if available on a rotator set at 100 rpm.
Avoid direct exposure to intense light. […]

[2] = tested on: Bcl-2; experiment: Bcl-2 level assay; type: cell-based, human; settings: MCF-7 cells; for Bcl-2 Fold Reduction: versus untreated control
Experimental: as §1
4.2.6. Bcl-2inhibition assay
Mix all reagents thoroughly without foaming before use. Wash the microwells twice with approximately 300 μL Wash Buffer per well with thorough aspiration of microwell contents between washes. Take caution not to scratch the surface of the microwells. After the last wash, empty the wells and tap microwell strips on absorbent pad or paper towel to remove excess Wash Buffer. Use the microwell strips immediately after washing or place upside down on a wet absorbent paper for not longer than 15 minutes. […] Add 100 μL of Sample […]
Diluent in duplicate to all standard wells and to the blank wells. Prepare standard (1:2 dilution) in duplicate ranging from 32 ng/mL to 0.5 ng/mL. Add 100 μL of Sample Diluent, in duplicate, to the blank wells. Add 80 μL of Sample Diluent, in duplicate, to the sample wells. Add 20 μL of each Sample, in duplicate, to the designated wells. Add 50 μL of diluted biotin-conjugate to all wells, including the blank wells. Cover with a plate cover and incubate at room temperature, on a microplate shaker at 100 rpm if available, for 2 hours. Remove plate cover and empty the wells.
as §2, §3
Avoid direct exposure to intense light. The point, at which the substrate reaction is stopped, is often determined by the ELISA reader. Many ELISA readers record absorbance only up to 2.0
O.D. Therefore, the color development within individual microwells must be watched by the person running the assay and the substrate reaction stopped before positive wells are no longer properly detectable. Stop the enzyme reaction by quickly pipetting 100 μL of Stop Solution into each well, including the blank wells. It is important that the Stop Solution is spread quickly and uniformly throughout the microwells to completely inactivate the enzyme. Results must be read immediately after the Stop Solution is added or within one hour if the microwell strips are stored at 2 - 8°C in the dark. Read absorbance of each microwell on a spectrophotometer using 450 nm as the primary wavelength.
4.3. Statistical analysis
Computerized Prism 5 program was used to statistically analyzed data using one-way ANOVA test followed by Tukey’s as post ANOVA for multiple comparison at P ≤.05. Data were presented

Structure (SMILES) | Bax Conc [1] [pg/mL] | Bax Fold Change [1] | Bcl-2 Conc [2] [ng/mL] | Bcl-2 Fold Reduction [2]
COc1ccc(C2CC(c3ccc(OCC(=O)Nc4ccc(C5=NNC(c6ccc(OC)c(OC)c6)C5)cc4)cc3)=NN2)cc1 (stereo not drawn) [Compound 12, 2-(4-(5-(4-Methoxyphenyl)-4,5-dihydro-1H-pyrazol-3-yl)phenoxy)-N-(4-(5-(3,4-dimethoxyphenyl)-4,5-dihydro-1H-pyrazol-3-yl)phenyl)acetamide] | 296 | 37 | 1.05 | 5
COc1ccc(C2CC(c3ccc(NC(=O)COc4ccc(C5=NNC(c6ccc(OC)c(OC)c6)C5)cc4)cc3)=NN2)cc1 (stereo not drawn) [Compound 17, 2-(4-(5-(3,4-Dimethoxyphenyl)-4,5-dihydro-1H-pyrazol-3-yl)phenoxy)-N-(4-(5-(4-methoxyphenyl)-4,5-dihydro-1H-pyrazol-3-yl)phenyl)acetamide] | 285 | 35 | 1.15 | 4
CN[C@@H]1C[C@H]2O[C@@](C)([C@@H]1OC)n1c3ccccc3c3c4c(c5c6ccccc6n2c5c31)C(=O)NC4 [Staurosporine, reference compound] | 280 | 35 | 1.10 | 5
